# From ChEMBL document CHEMBL1201862, “PubChem BioAssay data set” (2004)
#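 Results reflect a 48-hour exposure of cells in 96-well plates to compound at five concentrations. Abbreviation: GI50, concentration required for 50% inhibition of growth.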 Activity calls are given as the source filed them. Cut-off read from the data, not from the text of the source: active = GI50 up to about 1.1 µM and inactive = higher.
# Experiments:
# Assay in all cases: NCI-60 cell line screen, 48 h
# COLO 205 = tested on: COLO 205
# SF-539 = tested on: SF-539
# SK-MEL-5 = tested on: SK-MEL-5
# SF-268 = tested on: SF-268
# OVCAR-4 = tested on: OVCAR-4
# LOX IMVI = tested on: LOX IMVI
# HOP-62 = tested on: HOP-62
# MCF7 = tested on: MCF7
# NCI-H460 = tested on: NCI-H460
# EKVX = tested on: EKVX
# HCT-15 = tested on: HCT-15
# PC-3 = tested on: PC-3
# RPMI-8226 = tested on: RPMI-8226
# UO-31 = tested on: UO-31
# HCT-116 = tested on: HCT-116
# TK-10 = tested on: TK-10
# HT-29 = tested on: HT-29
# SK-MEL-2 = tested on: SK-MEL-2
# MDA-N = tested on: MDA-N
# MDA-MB-435 = tested on: MDA-MB-435
SMILES,GI50 (COLO 205),GI50 (SF-539),GI50 (SK-MEL-5),GI50 (SF-268),GI50 (OVCAR-4),GI50 (LOX IMVI),GI50 (HOP-62),GI50 (MCF7),GI50 (NCI-H460),GI50 (EKVX),GI50 (HCT-15),GI50 (PC-3),GI50 (RPMI-8226),GI50 (UO-31),GI50 (HCT-116),GI50 (TK-10),GI50 (HT-29),GI50 (SK-MEL-2),GI50 (MDA-N),GI50 (MDA-MB-435)
Cn1c(=O)c2nc(CCS)[nH]c2n(C)c1=O,> 100 µM (inactive),74.8 µM (inactive),> 100 µM (inactive),35.6 µM (inactive),> 100 µM (inactive),> 100 µM (inactive),54.3 µM (inactive),> 100 µM (inactive),> 100 µM (inactive),> 100 µM (inactive),> 100 µM,> 100 µM (inactive),> 100 µM (inactive),> 100 µM (inactive),> 100 µM (inactive),50.2 µM (inactive),> 100 µM (inactive),> 100 µM (inactive),> 100 µM (inactive),> 100 µM (inactive)
CC(C)NC1(C(N)=O)CCN(Cc2ccccc2)CC1,> 100 µM (inactive),> 100 µM (inactive),> 100 µM (inactive),> 100 µM (inactive),> 100 µM (inactive),> 100 µM (inactive),> 100 µM (inactive),> 100 µM (inactive),> 100 µM (inactive),> 100 µM (inactive),> 100 µM,> 100 µM (inactive),> 100 µM (inactive),> 100 µM (inactive),> 100 µM (inactive),> 100 µM (inactive),> 100 µM (inactive),> 100 µM (inactive),> 100 µM (inactive),> 100 µM (inactive)
NS(=O)(=O)c1ccc(NC(=O)c2cccc3cc4ccccc4nc23)cc1,12.2 µM (inactive),13.8 µM (inactive),17.3 µM (inactive),56.9 µM (inactive),21 µM (inactive),6.14 µM (inactive),> 58.6 µM (inactive),6.68 µM (inactive),5.02 µM (inactive),> 100 µM (inactive),12.6 µM,37.3 µM (inactive),8.32 µM (inactive),8.07 µM (inactive),4.69 µM (inactive),28.2 µM (inactive),8.3 µM (inactive),> 100 µM (inactive),13 µM (inactive),34.3 µM (inactive)
C=CCN1C(=O)/C(=C/c2ccc(Cl)cc2)N=C1SC/C=C/C,32.1 µM (inactive),> 100 µM (inactive),24.4 µM (inactive),48.3 µM (inactive),29.2 µM (inactive),34 µM (inactive),> 100 µM (inactive),26.6 µM (inactive),62.4 µM (inactive),26.4 µM (inactive),34.2 µM,31.4 µM (inactive),17.3 µM (inactive),34.7 µM (inactive),17 µM (inactive),> 100 µM (inactive),30.9 µM (inactive),24.2 µM (inactive),25.3 µM (inactive),33.6 µM (inactive)
CN1C(=O)C(O)CC1c1ccc(C(F)(F)F)cc1 (stereo not given),> 100 µM (inactive),> 100 µM (inactive),> 100 µM (inactive),> 100 µM (inactive),> 100 µM (inactive),> 100 µM (inactive),> 100 µM (inactive),> 100 µM (inactive),> 100 µM (inactive),> 100 µM (inactive),> 100 µM,> 100 µM (inactive),> 100 µM (inactive),> 100 µM (inactive),> 100 µM (inactive),> 100 µM (inactive),> 100 µM (inactive),> 100 µM (inactive),> 100 µM (inactive),> 100 µM (inactive)
CC(=O)NNc1nc(C)c(C(/C=C/c2ccccc2O)=N/NC(=O)c2ccncc2)s1,> 100 µM (inactive),> 100 µM (inactive),> 100 µM (inactive),> 100 µM (inactive),> 100 µM (inactive),> 100 µM (inactive),> 100 µM (inactive),> 100 µM (inactive),> 100 µM (inactive),> 100 µM (inactive),> 100 µM,> 100 µM (inactive),> 100 µM (inactive),> 100 µM (inactive),> 100 µM (inactive),> 100 µM (inactive),> 100 µM (inactive),> 100 µM (inactive),> 100 µM (inactive),> 100 µM (inactive)
O=c1[nH]c2cc(Cl)ccc2nc1/C(=N/Nc1ccccc1)C(O)c1ccco1 (stereo not given),> 100 µM (inactive),> 100 µM (inactive),> 100 µM (inactive),> 100 µM (inactive),> 100 µM (inactive),> 100 µM (inactive),> 100 µM (inactive),> 100 µM (inactive),> 100 µM (inactive),> 100 µM (inactive),> 100 µM,> 100 µM (inactive),> 100 µM (inactive),> 100 µM (inactive),> 100 µM (inactive),> 100 µM (inactive),> 100 µM (inactive),> 100 µM (inactive),> 100 µM (inactive),> 100 µM (inactive)
Oc1ccc(Cl)cc1-c1cc(-c2ccccc2)nc(S)n1,> 100 µM (inactive),42.6 µM (inactive),> 100 µM (inactive),27.3 µM (inactive),> 100 µM (inactive),> 100 µM (inactive),22.6 µM (inactive),> 100 µM (inactive),> 100 µM (inactive),4.52 µM (inactive),94 µM,> 100 µM (inactive),> 100 µM (inactive),24 µM (inactive),28.8 µM (inactive),30.5 µM (inactive),> 100 µM (inactive),27.2 µM (inactive),> 100 µM (inactive),> 100 µM (inactive)
CC(C)(C)C1=CC(=CC=C2C=CN(CCCCCCCCCCCO)C=C2)C=C(C(C)(C)C)C1=O,1.69 µM (inactive),2.07 µM (inactive),1.73 µM (inactive),1.57 µM (inactive),1.76 µM (inactive),0.735 µM (active),1.74 µM (inactive),0.796 µM (active),2.01 µM (inactive),1.96 µM (inactive),2.6 µM,1.69 µM (inactive),0.338 µM (active),1.76 µM (inactive),0.951 µM (active),1.5 µM (inactive),3.37 µM (inactive),1.83 µM (inactive),1.87 µM (inactive),1.7 µM (inactive)
O=C(O)c1ccc(/C=N\N(CCO)C2=NCCN2)cc1,> 100 µM (inactive),> 100 µM (inactive),> 100 µM (inactive),> 100 µM (inactive),> 100 µM (inactive),> 100 µM (inactive),> 100 µM (inactive),> 100 µM (inactive),> 100 µM (inactive),> 100 µM (inactive),> 100 µM,> 100 µM (inactive),> 100 µM (inactive),> 100 µM (inactive),> 100 µM (inactive),> 100 µM (inactive),> 100 µM (inactive),> 100 µM (inactive),> 100 µM (inactive),> 100 µM (inactive)
Cc1cnc2c(c1)C(=O)N(c1ccc([N+](=O)[O-])cc1)S2(=O)=O,> 100 µM (inactive),64.6 µM (inactive),71.3 µM (inactive),77.8 µM (inactive),78 µM (inactive),73.5 µM (inactive),> 100 µM (inactive),> 100 µM (inactive),> 100 µM (inactive),> 100 µM (inactive),66.1 µM,67.3 µM (inactive),37.7 µM (inactive),> 100 µM (inactive),> 100 µM (inactive),> 100 µM (inactive),> 100 µM (inactive),5.47 µM (inactive),93.5 µM (inactive),70.5 µM (inactive)
C[n+]1cn(C2=C([N-]S(=O)(=O)c3ccccc3)C(=O)c3ccccc3C2=O)c2ccccc21,2.85 µM (inactive),31.4 µM (inactive),6.08 µM (inactive),31.6 µM (inactive),1.59 µM (inactive),12.7 µM (inactive),47.9 µM (inactive),22.1 µM (inactive),16.8 µM (inactive),> 100 µM (inactive),> 100 µM,27.9 µM (inactive),71.3 µM (inactive),> 100 µM (inactive),22.9 µM (inactive),20.8 µM (inactive),6.67 µM (inactive),11.5 µM (inactive),12.8 µM (inactive),2.79 µM (inactive)
COc1ccc2nc3n(c2c1)C(c1c(F)cccc1F)SC3 (stereo not given),> 100 µM (inactive),> 100 µM (inactive),33.2 µM (inactive),29 µM (inactive),64.4 µM (inactive),47.3 µM (inactive),61.7 µM (inactive),32 µM (inactive),35 µM (inactive),18.9 µM (inactive),43.2 µM,29.7 µM (inactive),29.9 µM (inactive),51.9 µM (inactive),25.4 µM (inactive),77.4 µM (inactive),25.7 µM (inactive),11.1 µM (inactive),61.4 µM (inactive),39.1 µM (inactive)
CCNc1cc2oc(=O)cc(C(F)(F)F)c2cc1C,> 100 µM (inactive),> 100 µM (inactive),> 100 µM (inactive),> 100 µM (inactive),> 100 µM (inactive),> 100 µM (inactive),> 100 µM (inactive),> 100 µM (inactive),> 100 µM (inactive),31.3 µM (inactive),> 100 µM,> 100 µM (inactive),> 100 µM (inactive),> 100 µM (inactive),> 100 µM (inactive),> 100 µM (inactive),> 100 µM (inactive),> 100 µM (inactive),> 100 µM (inactive),> 100 µM (inactive)
